Reference: patent publication US9079895B2, “Morpholino compounds, uses and methods” (University of Dundee, priority 2012, dated 2015)

Key:
Settings in all cases: average of at least two experiments
[1] = biological target: Alpha1B adrenergic receptor (Homo sapiens (Human), UniProt P35368); assay: Secondary radioligand binding assay, Alpha1B; parameters: key to Ki Alpha1B: “—” indicates that a binding interaction was not detected
Description: (§1) 1. Secondary Radioligand Binding Assays The detailed experimental protocols for the radioligand and functional receptor assays are available on the NIMH PDSP website at http://pdsp.med.unc.edu/UNC-CH %20Protocol %20Book.pdf. Raw data (dpm) representing total radioligand binding (i.e. specific+non-specific binding) are plotted as a function of the logarithm of the molar concentration of the competitor (i.e. test or reference compound). […] C. Adrenergic Receptors: α1A, α1B, α2A, α2B, α2C, β1, β2, β3 Assay Buffers: For α1 receptors, α1 Binding Buffer (20 mM Tris-HCl, 145 mM NaCl, pH 7.4); for α2 receptors, α2 Binding Buffer (50 mM Tris-HCl, 5 mM MgCl2, pH 7.7); for β receptors, β Binding Buffer (50 mM Tris-HCl, 3 mM MnCl2, pH 7.7) Membrane Fraction Source: Transiently or stably transfected cell lines (e.g. HEK293, COS, CHO, NIH3T3) Protocol adapted from Arango et al. […] (1990), Gen. Psychiatry, 47: 1038-1047. The method is carried out in the manner described for the serotonin receptor assay above, except where described below. Eleven dilutions (5× assay concentration) of the test and reference (see Table 20) compounds are prepared in the appropriate buffer by serial dilution, as previously described. Radioligand is diluted to five times the assay concentration (see Table 21) in the appropriate buffer. […] Four rapid 500-μl washes are performed with chilled distilled water (for α1 and β receptors) or 0.1% polyethyleneimine (for α2 receptors) to reduce non-specific binding. Filters are placed in 6 ml scintillation tubes and allowed to dry overnight and the samples are treated to obtain data as described above. [table]

5HT2b receptor = 5HT2b receptor (Homo sapiens (Human), UniProt P41595); assay: Secondary radioligand binding assay, 5HT2b; parameters: key to Ki 5HT2b: “—” indicates that a binding interaction was not detected;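 note: competition binding against a radioligand on membranes from transfected cell lines, 1.5 h incubation at room temperature, filter-retained radioactivity counted by liquid scintillation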
5HT2b receptor, sequence (P41595 whole entry): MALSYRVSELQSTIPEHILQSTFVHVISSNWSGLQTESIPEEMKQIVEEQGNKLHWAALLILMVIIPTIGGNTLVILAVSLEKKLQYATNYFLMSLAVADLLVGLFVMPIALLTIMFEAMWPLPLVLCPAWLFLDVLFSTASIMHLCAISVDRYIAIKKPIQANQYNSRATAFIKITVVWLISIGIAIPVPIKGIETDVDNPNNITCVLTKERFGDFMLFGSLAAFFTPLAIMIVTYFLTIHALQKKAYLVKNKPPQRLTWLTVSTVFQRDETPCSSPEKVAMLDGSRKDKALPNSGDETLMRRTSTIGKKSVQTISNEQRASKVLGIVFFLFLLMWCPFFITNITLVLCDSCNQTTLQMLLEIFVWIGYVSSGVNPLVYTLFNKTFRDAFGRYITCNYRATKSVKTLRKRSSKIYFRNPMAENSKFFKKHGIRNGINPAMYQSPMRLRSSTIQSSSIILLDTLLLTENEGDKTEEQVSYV
Experimental: (§9) Assay Buffer: Standard Binding Buffer (50 mM Tris-HCl, 10 mM MgCl2, 1 mM EDTA, pH 7.4)
(§10) Membrane Fraction Source: Transiently or stably transfected cell lines (e.g., HEK293, COS, CHO, NIH3T3)

5HT1e receptor = 5HT1e receptor (Homo sapiens (Human), UniProt P28566); assay: Secondary radioligand binding assay, 5HT1e; parameters: key: “—” indicates that a binding interaction was not detected;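 note: competition binding against a radioligand on membranes from transfected cell lines, 1.5 h at room temperature, bound radioactivity counted by liquid scintillation after filtration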
5HT1e receptor, sequence (P28566 whole entry): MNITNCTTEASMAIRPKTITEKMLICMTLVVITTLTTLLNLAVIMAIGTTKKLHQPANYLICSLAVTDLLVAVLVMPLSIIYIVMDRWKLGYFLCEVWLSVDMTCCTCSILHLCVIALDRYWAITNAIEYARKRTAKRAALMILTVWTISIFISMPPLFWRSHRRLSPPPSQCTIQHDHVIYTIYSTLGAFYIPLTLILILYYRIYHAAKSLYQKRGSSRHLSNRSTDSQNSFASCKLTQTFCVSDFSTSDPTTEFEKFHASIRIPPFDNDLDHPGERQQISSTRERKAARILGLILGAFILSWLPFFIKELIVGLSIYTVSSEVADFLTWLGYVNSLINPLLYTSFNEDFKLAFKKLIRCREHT
Experimental: as §9, §10

dopamine D1 receptor = dopamine D1 receptor (Homo sapiens (Human), UniProt P21728); assay: Secondary radioligand binding assay, D1; parameters: key to Ki D1: “—” indicates that a binding interaction was not detected
dopamine D1 receptor, sequence (P21728 whole entry): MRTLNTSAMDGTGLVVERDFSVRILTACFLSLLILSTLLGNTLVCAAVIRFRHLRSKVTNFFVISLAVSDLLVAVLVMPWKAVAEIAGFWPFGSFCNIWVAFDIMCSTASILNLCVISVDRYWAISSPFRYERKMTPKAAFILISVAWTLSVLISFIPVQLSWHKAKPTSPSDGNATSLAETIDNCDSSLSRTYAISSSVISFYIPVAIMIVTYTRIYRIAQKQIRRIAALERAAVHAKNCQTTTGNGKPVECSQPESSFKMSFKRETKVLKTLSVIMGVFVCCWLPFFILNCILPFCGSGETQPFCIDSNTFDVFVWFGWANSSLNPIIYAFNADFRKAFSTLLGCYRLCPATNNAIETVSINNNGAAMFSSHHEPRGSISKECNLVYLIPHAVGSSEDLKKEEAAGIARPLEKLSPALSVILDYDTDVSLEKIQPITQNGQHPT
Experimental: (§2) 1. Secondary Radioligand Binding Assays
(§3) The detailed experimental protocols for the radioligand and functional receptor assays are available on the NIMH PDSP website at http://pdsp.med.unc.edu/UNC-CH %20Protocol %20Book.pdf.
(§4) Radioligand is diluted to five times the assay concentration (see Table 18) in Standard Binding Buffer. Typically, the assay concentration of radioligand is a value between one half the KD and the KD of a particular radioligand at its target. 50 μl aliquots of radioligand are dispensed into the wells of a 96-well plate containing 100 μl of Standard Binding Buffer. Then, duplicate 50 μl aliquots of the test and reference compound dilutions are added.
(§5) The 250 μl reactions are incubated at room temperature and shielded from light (to prevent photolysis of light-sensitive ligands) for 1.5 hours, then harvested by rapid filtration onto Whatman GF/B glass fiber filters pre-soaked with 0.3% polyethyleneimine using a 96-well Brandel harverster. Four rapid 500 μl washes are performed with chilled Standard Binding Buffer to reduce non-specific binding. Filters are placed in 6 ml scintillation tubes and allowed to dry overnight. The next day, 4 ml of EcoScint scintillation cocktail (National Diagnostics) are added to each tube. The tubes are capped, labeled, and counted by liquid scintillation counting. […] The filter mats are dried, then scintillant is melted onto the filters and the radioactivity retained on the filters is counted in a Microbeta scintillation counter.
(§6) Raw data (dpm) representing total radioligand binding (i.e. specific+non-specific binding) are plotted as a function of the logarithm of the molar concentration of the competitor (i.e. test or reference compound).
(§7) B. Dopamine Receptors: D1, D2, D3, D4, D5 Assay Buffers: Dopamine Binding Buffer (50 mM NaCl, 50 mM HEPES-HCl, 5 mM MgCl2, 0.5 mM EDTA, pH 7.4) Membrane Fraction Source: Transiently or stably transfected cell lines (e.g. HEK293, COS, CHO, NIH3T3)
(§8) The method is carried out in the manner described for the serotonin receptor assay above. Eleven dilutions (5× assay concentration) of the test and reference (see Table 19) compounds are prepared in Dopamine Binding Buffer by serial dilution, as previously described. Radioligand is diluted to five times the assay concentration (see Table 20) in Dopamine Binding Buffer.

[2] = biological target: Alpha1A adrenergic receptor (Homo sapiens (Human), UniProt P35348); assay: Secondary radioligand binding assay, Alpha1A; parameters: key to Ki Alpha1A: “—” indicates that a binding interaction was not detected
Alpha1A adrenergic receptor, sequence (P35348 whole entry): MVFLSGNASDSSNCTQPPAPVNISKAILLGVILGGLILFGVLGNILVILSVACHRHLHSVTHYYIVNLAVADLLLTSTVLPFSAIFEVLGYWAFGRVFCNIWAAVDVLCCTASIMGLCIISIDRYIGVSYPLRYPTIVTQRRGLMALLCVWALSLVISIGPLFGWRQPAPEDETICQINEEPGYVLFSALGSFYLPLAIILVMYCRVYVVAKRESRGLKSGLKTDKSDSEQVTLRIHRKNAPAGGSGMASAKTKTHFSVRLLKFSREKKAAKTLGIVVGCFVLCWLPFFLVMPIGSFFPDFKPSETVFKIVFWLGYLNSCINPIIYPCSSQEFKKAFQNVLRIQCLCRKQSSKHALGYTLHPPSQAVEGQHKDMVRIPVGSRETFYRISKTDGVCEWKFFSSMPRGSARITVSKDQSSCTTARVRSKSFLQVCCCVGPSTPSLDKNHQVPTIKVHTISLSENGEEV
Description: as §1

5HT6 receptor = 5HT6 receptor (Homo sapiens (Human), UniProt P50406); assay: Secondary radioligand binding assay, 5HT6; parameters: key: “—” indicates that a binding interaction was not detected;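 note: competition displacement of radioligand from membranes of transfected cell lines expressing the receptor, 1.5 h at room temperature, bound radioactivity counted by scintillation after filtration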
5HT6 receptor, sequence (P50406 whole entry): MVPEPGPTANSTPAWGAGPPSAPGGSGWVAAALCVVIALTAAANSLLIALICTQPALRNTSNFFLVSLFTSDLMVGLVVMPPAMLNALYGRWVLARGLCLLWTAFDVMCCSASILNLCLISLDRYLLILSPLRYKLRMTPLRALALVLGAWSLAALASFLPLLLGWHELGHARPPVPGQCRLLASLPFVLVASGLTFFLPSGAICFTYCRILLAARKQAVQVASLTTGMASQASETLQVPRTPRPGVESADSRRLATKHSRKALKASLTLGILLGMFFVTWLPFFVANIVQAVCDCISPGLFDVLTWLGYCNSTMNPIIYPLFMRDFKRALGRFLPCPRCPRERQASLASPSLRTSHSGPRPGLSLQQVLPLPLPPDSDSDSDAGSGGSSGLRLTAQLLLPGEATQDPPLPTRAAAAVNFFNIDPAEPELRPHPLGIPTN
Experimental: as §9, §10

5HT7 receptor = 5HT7 receptor (Homo sapiens (Human), UniProt P34969); assay: Secondary radioligand binding assay, 5HT7; parameters: key to Ki 5HT7: “—” indicates that a binding interaction was not detected;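 note: competition of test compound with radioligand for binding to membranes from transfected cell lines, 1.5 h incubation at room temperature, filter-bound radioactivity read by liquid scintillation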
5HT7 receptor, sequence (P34969 whole entry): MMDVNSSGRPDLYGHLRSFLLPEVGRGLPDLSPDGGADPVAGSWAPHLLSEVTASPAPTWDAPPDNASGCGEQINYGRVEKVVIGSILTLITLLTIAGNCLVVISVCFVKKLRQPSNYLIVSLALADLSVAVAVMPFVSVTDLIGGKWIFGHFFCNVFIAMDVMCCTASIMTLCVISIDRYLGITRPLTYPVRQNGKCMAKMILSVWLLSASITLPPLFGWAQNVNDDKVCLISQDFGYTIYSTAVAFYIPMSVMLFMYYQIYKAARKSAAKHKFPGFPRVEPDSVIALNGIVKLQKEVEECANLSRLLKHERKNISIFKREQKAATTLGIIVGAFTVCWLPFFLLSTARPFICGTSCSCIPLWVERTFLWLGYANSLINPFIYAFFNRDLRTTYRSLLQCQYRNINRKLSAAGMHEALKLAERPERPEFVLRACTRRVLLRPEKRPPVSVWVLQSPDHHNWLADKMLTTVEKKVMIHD
Experimental: as §9, §10

dopamine D2 receptor = dopamine D2 receptor (Homo sapiens (Human), UniProt P14416); assay: Secondary radioligand binding assay, D2; parameters: key to Ki D2: “—” indicates that a binding interaction was not detected
dopamine D2 receptor, sequence (P14416 whole entry, species assumed): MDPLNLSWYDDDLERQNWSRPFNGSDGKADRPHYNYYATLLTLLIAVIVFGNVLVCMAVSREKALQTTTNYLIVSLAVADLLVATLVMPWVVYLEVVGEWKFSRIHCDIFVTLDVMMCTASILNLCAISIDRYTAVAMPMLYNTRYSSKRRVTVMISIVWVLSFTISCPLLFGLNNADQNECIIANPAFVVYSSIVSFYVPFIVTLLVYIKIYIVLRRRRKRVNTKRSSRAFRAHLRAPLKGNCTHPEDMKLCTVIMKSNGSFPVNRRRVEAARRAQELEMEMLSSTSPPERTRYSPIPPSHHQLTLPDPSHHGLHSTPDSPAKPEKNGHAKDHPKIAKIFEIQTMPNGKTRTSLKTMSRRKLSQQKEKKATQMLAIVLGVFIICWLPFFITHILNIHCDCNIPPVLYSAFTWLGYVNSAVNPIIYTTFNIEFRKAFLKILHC
Experimental: as §2, §3, §4, §5, §6, §7, §8

dopamine D3 receptor = dopamine D3 receptor (Homo sapiens (Human), UniProt P35462); assay: Secondary radioligand binding assay, D3; parameters: key to Ki D3: “—” indicates that a binding interaction was not detected
dopamine D3 receptor, sequence (P35462 whole entry, species assumed): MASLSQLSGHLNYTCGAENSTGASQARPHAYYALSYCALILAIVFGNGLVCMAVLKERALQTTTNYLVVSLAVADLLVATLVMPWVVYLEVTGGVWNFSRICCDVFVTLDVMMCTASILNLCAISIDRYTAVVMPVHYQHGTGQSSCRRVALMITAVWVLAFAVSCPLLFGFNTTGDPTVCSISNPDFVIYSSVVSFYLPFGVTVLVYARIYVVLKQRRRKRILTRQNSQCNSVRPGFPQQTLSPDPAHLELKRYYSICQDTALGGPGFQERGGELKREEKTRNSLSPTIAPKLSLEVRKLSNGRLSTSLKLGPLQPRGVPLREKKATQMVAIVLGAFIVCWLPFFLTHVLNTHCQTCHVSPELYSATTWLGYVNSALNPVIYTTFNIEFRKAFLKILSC
Experimental: as §2, §3, §4, §5, §6, §7, §8

dopamine D5 receptor = dopamine D5 receptor (Homo sapiens (Human), UniProt P21918); assay: Secondary radioligand binding assay, D5; parameters: key to Ki D5: “—” indicates that a binding interaction was not detected
dopamine D5 receptor, sequence (P21918 whole entry): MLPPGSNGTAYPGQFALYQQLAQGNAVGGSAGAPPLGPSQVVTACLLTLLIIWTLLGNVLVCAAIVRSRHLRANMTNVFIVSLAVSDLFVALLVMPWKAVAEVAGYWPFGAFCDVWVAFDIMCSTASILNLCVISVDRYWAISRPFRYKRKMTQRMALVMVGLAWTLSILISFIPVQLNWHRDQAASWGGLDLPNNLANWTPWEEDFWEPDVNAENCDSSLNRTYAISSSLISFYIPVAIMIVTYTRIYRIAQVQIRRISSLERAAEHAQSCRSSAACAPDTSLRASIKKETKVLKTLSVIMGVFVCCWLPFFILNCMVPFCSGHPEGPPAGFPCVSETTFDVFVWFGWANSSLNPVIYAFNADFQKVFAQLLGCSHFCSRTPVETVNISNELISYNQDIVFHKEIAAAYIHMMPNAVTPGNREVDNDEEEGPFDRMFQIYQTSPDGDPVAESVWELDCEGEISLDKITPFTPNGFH
Experimental: as §2, §3, §4, §5, §6, §7, §8

5HT3 receptor = 5HT3 receptor (Homo sapiens (Human), UniProt P46098); assay: Secondary radioligand binding assay, 5HT3; parameters: key: “—” indicates that a binding interaction was not detected;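 note: radioligand competition binding on membranes from transfected cell lines, 1.5 h incubation at room temperature, filter-retained radioactivity measured by liquid scintillation counting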
5HT3 receptor, sequence (P46098 24-478): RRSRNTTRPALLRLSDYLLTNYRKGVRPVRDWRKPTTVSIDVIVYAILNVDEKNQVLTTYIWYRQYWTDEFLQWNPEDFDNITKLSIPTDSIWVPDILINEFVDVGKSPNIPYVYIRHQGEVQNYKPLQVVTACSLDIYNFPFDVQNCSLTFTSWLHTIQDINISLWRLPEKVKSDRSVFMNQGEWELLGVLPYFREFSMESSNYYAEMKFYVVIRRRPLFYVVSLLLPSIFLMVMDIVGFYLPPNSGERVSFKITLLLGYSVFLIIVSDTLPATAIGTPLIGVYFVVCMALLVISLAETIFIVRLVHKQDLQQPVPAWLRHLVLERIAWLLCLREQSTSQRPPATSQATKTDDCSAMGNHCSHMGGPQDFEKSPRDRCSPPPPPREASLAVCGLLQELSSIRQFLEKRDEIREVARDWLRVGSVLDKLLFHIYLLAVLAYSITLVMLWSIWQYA
Experimental: as §9, §10

Alpha1B adrenergic receptor, sequence (P35368 whole entry): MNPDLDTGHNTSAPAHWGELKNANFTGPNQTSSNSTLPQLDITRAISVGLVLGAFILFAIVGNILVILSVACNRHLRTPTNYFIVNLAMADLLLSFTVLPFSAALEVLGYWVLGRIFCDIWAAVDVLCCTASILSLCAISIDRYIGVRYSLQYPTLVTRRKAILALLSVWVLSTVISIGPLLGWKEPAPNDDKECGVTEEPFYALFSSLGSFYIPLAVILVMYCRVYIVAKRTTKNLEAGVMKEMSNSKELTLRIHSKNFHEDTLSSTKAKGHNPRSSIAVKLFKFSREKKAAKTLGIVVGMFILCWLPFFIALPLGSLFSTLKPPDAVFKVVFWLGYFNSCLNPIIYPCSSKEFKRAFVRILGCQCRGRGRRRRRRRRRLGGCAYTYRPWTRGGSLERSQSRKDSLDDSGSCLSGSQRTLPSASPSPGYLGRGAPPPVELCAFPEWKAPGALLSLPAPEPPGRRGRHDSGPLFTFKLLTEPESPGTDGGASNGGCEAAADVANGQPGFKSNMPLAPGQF

Compound | Ki Alpha1B [1] | Ki 5HT2b (5HT2b receptor) | Ki 5HT1e (5HT1e receptor) | Ki D1 (dopamine D1 receptor) | Ki Alpha1A [2] | Ki 5HT6 (5HT6 receptor) | Ki 5HT7 (5HT7 receptor) | Ki D2 (dopamine D2 receptor) | Ki D3 (dopamine D3 receptor) | Ki D5 (dopamine D5 receptor) | Ki 5HT3 (5HT3 receptor) | Ki (5HT2b receptor) [µM] | Ki (dopamine D3 receptor) [µM] | Ki (dopamine D1 receptor) [µM] | Ki [1] [µM] | Ki [2] [µM] | Ki (5HT7 receptor) [µM] | Ki (dopamine D2 receptor) [µM] | Ki (dopamine D5 receptor) [µM]
O=C(CN1CCO[C@@H](COc2ccccn2)C1)N1CCc2ccccc21 [Compound 14r, (R)-1-(Indolin-1-yl)-2-(2-((pyridin-2-yloxy)methyl)morpholino)ethanone] | — | — | — | — | — | — | — | — | — | — | — |  |  |  |  |  |  |  | 
c1ccc(OC[C@H]2CN(CCN3CCc4ccccc43)CCO2)nc1 [Compound 15r, (R)-4-(2-(Indolin-1-yl)ethyl)-2-((pyridin-2-yloxy)methyl)morpholine] | — |  | — | — | — | — | — | — |  | — | — | 0.6 | > 10 |  |  |  |  |  | 
Cc1ccnc(OC[C@H]2CN(CC(=O)N3CCc4ccccc43)CCO2)c1 [Compound 16r] | — | — | — |  | — | — | — | — | — | — | — |  |  | > 10 |  |  |  |  | 
Cc1ccnc(OC[C@H]2CN(CCN3CCc4ccccc43)CCO2)c1 [Compound 17r, (R)-4-(2-(Indolin-1-yl)ethyl)-2-(((4-methylpyridin-2-yl)oxy)methyl)morpholine] | — |  | — |  | — | — | — | — | — | — | — | 0.788 |  | > 10 |  |  |  |  | 
O=C(CN1CCO[C@H](COc2ccccc2)C1)N1CCc2ccccc21 [Compound 18s, (S)-1-(Indolin-1-yl)-2-(2-(phenoxymethyl)morpholino)ethanone] | — |  | — | — | — | — | — | — | — | — | — | 6.42 |  |  |  |  |  |  | 
c1ccc(OC[C@@H]2CN(CCN3CCc4ccccc43)CCO2)cc1 [Compound 19s, (S)-4-(2-(Indolin-1-yl)ethyl)-2-(phenoxymethyl)morpholine] |  |  | — |  |  | — |  |  |  | — | — | 1.44 | 2.83 | 1.35 | 7.21 | 2.72 | 0.468 | 0.342 | 
O=C(CN1CCO[C@@H](COc2cccnc2)C1)N1CCc2ccccc21 [Compound 20r, (R)-1-(Indolin-1-yl)-2-(2-((pyridin-3-yloxy)methyl)morpholino)ethanone] | — |  | — | — | — | — | — | — | — | — | — | 8.81 |  |  |  |  |  |  | 
O=C(CN1CCO[C@H](COc2cccnc2)C1)N1CCc2ccccc21 [Compound 20s, (S)-1-(Indolin-1-yl)-2-(2-((pyridin-3-yloxy)methyl)morpholino)ethanone] | — |  | — | — | — | — | — | — | — | — | — | 7.64 |  |  |  |  |  |  | 
c1cncc(OC[C@H]2CN(CCN3CCc4ccccc43)CCO2)c1 [Compound 21r, (R)-4-(2-(Indolin-1-yl)ethyl)-2-((pyridin-3-yloxy)methyl)morpholine] | — | — | — |  | — | — | — | — | — | — | — |  |  | > 10 |  |  |  |  | 
c1cncc(OC[C@@H]2CN(CCN3CCc4ccccc43)CCO2)c1 [Compound 21s, (S)-4-(2-(Indolin-1-yl)ethyl)-2-((pyridin-3-yloxy)methyl)morpholine] | — | — | — |  | — | — | — |  |  |  | — |  | 8.36 | > 10 |  |  |  | > 10 | > 10
Clc1cccc(OC[C@H]2CN(CCN3CCc4ccccc43)CCO2)c1 [Compound 23r, (R)-2-((3-Chlorophenoxy)methyl)-4-(2-(indolin-1-yl)ethyl)morpholine] | — |  | — | — | — | — | — |  | — | — | — |  |  |  |  |  |  | > 10 | 
Clc1cccc(OC[C@@H]2CN(CCN3CCc4ccccc43)CCO2)c1 [Compound 23s, (S)-2-((3-chlorophenoxy)methyl)-4-(2-(indolin-1-yl)ethyl)morpholine] |  |  | — |  |  | — | — |  |  | — | — |  | 6.65 | 2.04 | 6.64 | 9.04 |  | 1.89 | 
COc1cccc(OC[C@@H]2CN(CCN3CCc4ccccc43)CCO2)c1 [Compound 25s, (S)-4-(2-(Indolin-1-yl)ethyl)-2-((3-methoxyphenoxy)methyl)morpholine] | — |  | — |  |  | — | — |  |  |  | — |  | 8.29 | 8.37 |  | 8.35 |  | 10 | 8.53
